In brackets after ≈: the same amount, converted by molar mass. Like-named read-outs stand apart in the source and are kept apart here.
Key:
[1] = test system: Plasmodium falciparum strain D6; test: Antimalarial activity in various strains, D6; assay type: cell-based
Experimental: f. Parasite cultures. The P. falciparum strains used in the experiments: ItG2G1 (Brazil, provided by Dr. L. H. Miller), D6 (W. African, provided by Dr. A. J. M. Oduola) FCR-3 (Gambian, provided by Dr. J. B. Jensen) and W2 (Indochina, provided by Dr. A. J. M. Oduola), were grown in culture flasks of human erythrocytes by a modified version of Trager and Jensen's method as described by Silfen et al. ((1988) Biochem. Pharmacol. 37: 4269-4276)).
g. Bioassay of iron carrier antimalarial activity. […] After the indicated time of incubation with drug and either previous to or after washing 3 times with 100 volumes growth medium, the cells were supplemented with 6 μCi of either [^3 H]-hypoxanthine or [^3 H]-Ileu (Amersham, England) per well and parasite growth assessed after 24-48 hours by harvesting the labelled cells onto glass-fiber filters (Tamar, Inc. Jerusalem) and counting of the radioactivity.
It is clear that the efficacy of the agents is primarily correlated with the respective octanol/saline partition coefficient or the hydrophobicity of the amino acid side chain, and only secondarily with their iron binding efficiencies, which are relatively high for all the agents. […] The antimalarial activity of the various chelators was assessed over a 24 hr period of exposure on infected cells (trophozoite stage of P. falciparum) as described in method (g). […]

[2] = Partition between n-octanol and saline; assay type: physicochemical; conditions: for rel. Pcoeff (a): Table 2, relative to L-val-n1 = 1.0
Experimental: e. Partition coefficients were obtained by overnight equilibration of the free reversed siderophores between equal volumes of n-octanol and saline. The concentrations of the ligands in each phase were determined by adding excess iron(III) and measuring the ferric complexes at 430 nm.
The values for Pcoeff of free RSF ileun2 (the same as SF1ileu) and of leun2 and their respective iron(III) complexes were similar (not shown).

infected red cells = test: Uptake of 59Fe-carrier complexes into infected red cells; assay type: cell-based, human erythrocytes infected with P. falciparum
Experimental: (§1) k. Uptake of radioactive carrier-Fe complexes. DFO and the different SF derivatives were pre-complexed with iron by addition of concentrated stock solutions of 20 mg/ml carriers to ^59 FeCl3 (Amersham, England) in 0.5 ml of 150 mM NaCl, 10 mM Hepes at 3-5 molar excess of carrier for 1 hour at room temperature. To begin the flux, normal or parasitized red cells that had been washed 3 times in saline buffer and resuspended in the same buffer supplemented with 5% bovine serum albumin (BSA), 2.5 mM citrate, 2 mg/ml glucose were added to radioactive ^59 Fe-complexes at a final suspension of 20% hematocrit. After incubation at 37° C., 75 μl suspension was removed in duplicate aliquots for each time point, placed in plastic 15 ml test tube (Starstedt) and centrifuged 1 minute at 2,500 g. The supernatant was removed and the pellet immediately placed on ice. After all sampling was completed the pellets were washed twice in 15 ml of ice cold buffer containing 50 mM EDTA and lysed in distilled water. Radioactivity (Gamma emission, 700-1300 Kev) was counted and the cell number for each sample determined from hemoglobin absorption of the lysate at 410 nm.
Penetration of RSF's into normal and infected red cells was estimated by monitoring uptake of the RSF's-^59 Fe(III) complexes into infected and uninfected cells and compared to DFO. In order to confirm actual uptake of Fe-RSF ileun2 rather than adsorption to the outer membrane, cells were thoroughly washed and lysates were subjected to 80,000g×20 min centrifugation.
The carriers were pre-complexed to ^59 FeCl3 at 4:1 ration in DMSO with 5 μM external FeCl3 (from methanolic stock solutions). The radioactive complexes were then added to 20% hematocrit cell suspensions and flux was measured. […] Cell number was determined from hemoglobin absorption of lysate at 410 nm.

normal red cells = test: Uptake of 59Fe-carrier complexes into normal red cells; assay type: cell-based, human; conditions: iron(III) complex, normal red cells
Experimental: as §1
Due to the fact that RSF's have markedly greater lipophilicity than DFO, they were expected to faster penetrate and therefore more effectively chelate intracellular iron after short exposure times. Penetration of RSF's into normal and infected red cells was estimated by monitoring uptake of the RSF's-^59 Fe(III) complexes into infected and uninfected cells and compared to DFO. In order to confirm actual uptake of Fe-RSF ileun2 rather than adsorption to the outer membrane, cells were thoroughly washed and lysates were subjected to 80,000g×20 min centrifugation. More than 90% of the total counts were found in the cytosol fraction (results not shown).
FIGS. 8a and 8b show uptake of Fe^59 -carrier complexes into normal and infected red cells. Uptake of ^59 -Fe-RSF (FIG. 8a) and ^59 Fe-DFO (FIG. 8b) into normal (open symbols) and infected (closed symbols) red cells (60% parasitemia, >90% trophozoites). The carriers were pre-complexed to ^59 FeCl3 at 4:1 ration in DMSO with 5 μM external FeCl3 (from methanolic stock solutions). The radioactive complexes were then added to 20% hematocrit cell suspensions and flux was measured. Specific activity was 485000 cpm/nmole and 369000 cpm/nmole for the RSF and DFO uptake experiments, respectively. Cell number was determined from hemoglobin absorption of lysate at 410 nm.

transferrin = test: Effect on iron in transferrin; conditions: after the same time of exposure
[3] = iron(III) complex, infected red cells, 5 μM external Fe

Row | IC50 ([1]; strain D6 (chloroquine-sensitive), 48 hour exposure, trophozoites, read-out: IC50) [µg/mL] | Uptake level lower than that attained by RSF's after 10 minutes (infected red cells; intracellular Fe-DFO after 8 hours vs RSF's after 10 minutes) [fold] | SMILES | rel. Pcoeff (a) [2] | Uptake into infected vs normal red cells (infected red cells; DFO-Fe, 8 hour time course) | Time to maximum uptake (normal red cells) [min] | Maximum uptake level (normal red cells; 5 μM external Fe) [nmoles/10^10 cells] | Uptake t1/2 (normal red cells; 5 μM external Fe) [min] | IC50 ([1]; D6, 48 h) [µg/mL] | Effect on iron in transferrin (transferrin) | logP ([2]; Table 1, free ligand, read-out: Partition coefficient (converted)) | Pcoeff of free ligand vs iron(III) complex ([2]; not shown) | Time to maximum uptake (infected red cells; iron(III) complex, infected red cells) [min] | Maximum uptake level (infected red cells; [3]) [nmoles/10^10 cells] | Uptake t1/2 (infected red cells; [3]) [min]
1 | 40 ± 9 (≈ 71.3 µM) | 20 | CC(=O)N(O)CCCCCNC(=O)CCC(=O)N(O)CCCCCNC(=O)CCC(=O)N(O)CCCCCN [DFO, desferrioxamine B, reference compound] | < 0.056 | approximately twice that of normal red cells |  |  |  |  |  |  |  |  |  | 
2 |  |  | CC[C@H](C)[C@H](NC(=O)CCOCC(CC)(COCCC(=O)N[C@H](C(=O)N(C)O)[C@@H](C)CC)COCCC(=O)N[C@H](C(=O)N(C)O)[C@@H](C)CC)C(=O)N(C)O [SF1-ileu] | 8.2 |  | 10 to 15 | 4 | 2 to 3 | 6 ± 2 (≈ 7.72 µM) | not substantially affecting | 1.15 | similar | 10 to 15 | 4 | 2 to 3
